# Patent US9133160B2, “Substituted benzimidazole and imidazopyridine compounds useful as CYP17 modulators” (Bristol-Meyers Squibb Company, priority 2010, dated 2015)
# Tested on: testosterone levels
# Assay: 1-Day Cyno PK/PD Study (plasma testosterone)
# Type: in vivo
# Settings: cynomolgus monkeys, single oral dose 2 mg/kg in 80% PEG-400/water, 24 hour period
# Protocol: Example 31 was formulated in 80% PEG-400/water at a volume of 1 mL/kg of monkey and administered orally at 2 mg/kg. The formulation was then dosed orally at time=0 hours and blood samples were taken over a 24 hour period to monitor for drug exposure and testosterone levels. (♦) Example 31 (nM); (▴) testosterone (ng/dL).
# 1-Day Cyno PK/PD Study Protocol
# Animals: All procedures involving animals and their care were conducted in conformity with the guidelines that are in compliance with the Bristol-Myers Squibb Institutional Animal Care and Use Committee. Fully mature male cynomolgus monkeys (>4 yrs of age; 5-6 kg) were from an in-house colony. All the monkeys used had chronically implanted femoral vein access ports. For oral studies, all animals were fasted overnight prior to dosing and were fed 4 hr after dosing. […]
# Sampling: Blood samples were collected from the femoral port, at 15, 30, and 45 min, and 1, 2, 4, 6, 8, 12, 24, 30, and 48 hr after oral administration. […] The plasma fraction was immediately separated by centrifugation (14,000 rpm, 10 min, 4° C.), frozen on dry ice, and stored at −20° C. until the samples were analyzed.
# Analysis of Tested Compound: Plasma samples were thawed and treated with two volumes of acetonitrile containing internal standard. After centrifugation to remove precipitated proteins, an aliquot of supernatant was analyzed by LC/MS/MS. […]
row,SMILES,testosterone levels [ng/dL]
1,"Cc1ccncc1-c1cccc2c1ncn2CC(F)(F)F [Example 31, 4-(4-Methylpyridin-3-yl)-1-(2,2,2-trifluoroethyl)-1H-benzo[d]imidazole]",~15

# Biological target: Human CYP17 (Homo sapiens (Human), UniProt P05093)
# Assay: CYP17 Total SPA Assay
# Type: biochemical
# Settings: microsomes from HEK2 cells stably transfected with CYP17; 3H-Pregnenolone 1 uM, NADPH 2 mM; read-out: Human CYP17 Inhibition SPA IC50
# Protocol: CYP17 Total SPA Assay The assays were performed in U-bottom 384-well optiplates. […] The reaction was initiated by the combination of the microsomes and substrates in wells containing compound. The reaction was incubated at room temperature for 45 minutes and terminated by adding 7.5 μl of 0.2N HCl to each well. […] The plate was sealed and incubated overnight with shaking at 4° C. The beads were allowed to settle in the plate for 1 hour and the plate read on a TOPCOUNT® (Perkin-Elmer) plate reader. […] The final concentration of reagents in the assays are NADPH, 2 mM; 3H-Pregnenolone, 1 uM; microsomes, 1.25 ug/ml; […] Dose response curves were generated to determine the concentration required inhibiting 50% of enzyme activity (IC50). Compounds were dissolved at 10 mM in dimethylsulfoxide (DMSO) and evaluated at eleven concentrations, each in duplicate. IC50 values were derived by non-linear regression analysis. Table 3 below lists the IC50 values for the following examples of this invention measured in the Total CYP17 SPA Assay hereinabove.
# Sequence of Human CYP17 (P05093 whole entry): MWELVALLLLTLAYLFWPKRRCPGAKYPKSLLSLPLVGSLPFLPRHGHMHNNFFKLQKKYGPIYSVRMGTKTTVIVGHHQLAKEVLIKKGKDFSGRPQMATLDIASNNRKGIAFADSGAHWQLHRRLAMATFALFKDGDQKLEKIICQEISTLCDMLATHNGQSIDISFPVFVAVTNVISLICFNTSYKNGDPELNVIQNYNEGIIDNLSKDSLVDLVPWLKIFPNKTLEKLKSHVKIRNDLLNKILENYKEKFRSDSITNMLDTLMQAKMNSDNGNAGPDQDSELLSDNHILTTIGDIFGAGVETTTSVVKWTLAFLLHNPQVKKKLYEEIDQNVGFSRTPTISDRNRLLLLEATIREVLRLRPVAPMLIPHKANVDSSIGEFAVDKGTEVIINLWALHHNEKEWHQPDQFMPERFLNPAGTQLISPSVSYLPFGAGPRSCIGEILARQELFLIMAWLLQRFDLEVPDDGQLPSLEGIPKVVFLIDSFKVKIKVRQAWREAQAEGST
row,SMILES,IC50 [nM]
1,"Cc1ccncc1-c1cccc2c1ncn2-c1ccccn1 [Example 2, 4-(4-methylpyridin-3-yl)-1-(pyridin-2-yl)-1H-benzo[d]imidazole]",5.8
2,"Cc1ccncc1-c1cccc2c1ncn2-c1cccc(F)n1 [Example 14, 1-(6-fluoropyridin-2-yl)-4-(4-methylpyridin-3-yl)-1H-benzo[d]imidazole]",11
3,"Cc1ccncc1-c1cccc2c1ncn2-c1ccncc1 [Example 30, 4-(4-methylpyridin-3-yl)-1-(pyridin-4-yl)-1H-benzo[d]imidazole]",405
4,"Cc1ccncc1-c1cccc2c1ncn2CC#N [Example 35, 2-(4-(4-Methylpyridin-3-yl)-1H-benzo[d]imidazol-1-yl)acetonitrile]",330
5,"Cc1ccncc1-c1cccc2c1ncn2-c1cccc(C(F)(F)F)n1 [Example 9, 4-(4-methylpyridin-3-yl)-1-(6-(trifluoromethyl)pyridin-2-yl)-1H-benzo[d]imidazole]",40
6,"Cc1ccncc1-c1cccc2c1ncn2CC(F)(F)F [Example 31, 4-(4-Methylpyridin-3-yl)-1-(2,2,2-trifluoroethyl)-1H-benzo[d]imidazole]",12
7,"Cc1ccncc1-c1cccc2c1ncn2-c1ccncn1 [Example 29, 4-(4-methylpyridin-3-yl)-1-(pyrimidin-4-yl)-1H-benzo[d]imidazole]",656
8,"CCOc1ncncc1-c1cccc2c1ncn2CC(F)(F)F [Example 45, 4-(4-Ethoxypyrimidin-5-yl)-1-(2,2,2-trifluoroethyl)-1H-benzo[d]imidazole]",135
9,"Cc1ccncc1-c1cccc2c1ncn2-c1ncc(F)cc1F [Example 15, 1-(3,5-difluoropyridin-2-yl)-4-(4-methylpyridin-3-yl)-1H-benzo[d]imidazole]",758
10,"Nc1ncncc1-c1cccc2c1ncn2-c1ccc(F)cc1F [Example 46, 5-(1-(2,4-Difluorophenyl)-1H-benzo[d]imidazol-4-yl)pyrimidin-4-amine]",797
11,"Cc1ccncc1-c1cccc2c1ncn2C1CC1 [Example 37, 1-Cyclopropyl-4-(4-methylpyridin-3-yl)-1H-benzo[d]imidazole]",396
12,"Cc1ccncc1-c1cccc2c1ncn2-c1cnccn1 [Example 4, 4-(4-methylpyridin-3-yl)-1-(pyrazin-2-yl)-1H-benzo[d]imidazole]",37
13,"Nc1ncncc1-c1cccc2c1ncn2CC(F)(F)F [Example 44, 5-(1-(2,2,2-Trifluoroethyl)-1H-benzo[d]imidazol-4-yl)pyrimidin-4-amine]",674
14,"FC(F)(F)Cn1cnc2c(-c3cnccc3Cl)cccc21 [Example 39, 4-(4-Chloropyridin-3-yl)-1-(2,2,2-trifluoroethyl)-1H-benzo[d]imidazole]",361
15,"Cc1ccncc1-c1cccc2c1ncn2-c1cccnn1 [Example 6, 4-(4-methylpyridin-3-yl)-1-(pyridazin-3-yl)-1H-benzo[d]imidazole]",250
